Laboratory results as given in US5703239A, “Indanylpiperidines as melatonergic agents” (Bristol-Myers Squibb Company, priority 1996, dated 1997).

Test system: human melatonin receptors
Assay: not given
Settings: result in words, luzindole, background section; cited from earlier work

| SMILES | binds to human melatonin receptors |
| --- | --- |
| CC(=O)NCCc1c(Cc2ccccc2)[nH]c2ccccc12 [Luzindole] | binds to human melatonin receptors |

Test system: not given
Assay: not given
Settings: literature: Dubocovich et al, European Journal of Pharmacology, 182, (1990), pages 313-325; cited from earlier work

| SMILES | antidepressant-like effects |
| --- | --- |
| CC(=O)NCCc1c(Cc2ccccc2)[nH]c2ccccc12 [Luzindole] | exhibits antidepressant-like effects |

Biological target: T1, human ML1B receptor (Homo sapiens, UniProt P49286)
T1 construct: expressed in transfected cells; host or cells: NIH 3T3 cells (stably transfected; obtained from S. M. Reppert)
T1 sequence (P49286 1-362): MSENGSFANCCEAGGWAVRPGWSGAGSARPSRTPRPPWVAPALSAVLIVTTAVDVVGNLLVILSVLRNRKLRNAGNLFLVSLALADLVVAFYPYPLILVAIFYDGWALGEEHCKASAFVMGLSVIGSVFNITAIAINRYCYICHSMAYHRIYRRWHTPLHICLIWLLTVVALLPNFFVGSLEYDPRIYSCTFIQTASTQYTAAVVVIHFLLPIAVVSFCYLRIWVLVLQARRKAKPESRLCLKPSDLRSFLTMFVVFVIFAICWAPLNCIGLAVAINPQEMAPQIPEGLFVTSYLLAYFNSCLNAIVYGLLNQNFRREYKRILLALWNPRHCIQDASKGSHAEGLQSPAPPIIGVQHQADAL
Assay: Binding to human melatonergic receptors (2-[125I]-iodomelatonin, NIH 3T3 cell membranes, human ML1B receptor)
Settings: IC50 class; 200 pM 2-[125I]-iodomelatonin, 37° C., 1 hour, membranes of NIH 3T3 cells transfected with human ML1B receptor; read-out: Melatonin Binding
Experimental: Measurement of Binding to Human Melatonergic Receptors The melatonergic binding affinities of various compounds of Formula I were determined by the method of Reppert, S. M., Weaver, D. R., and Ebisawa, R. (Neuron, Volume 13, 1177-1185, 1994). The assays were incubated at 37° C. for 1 hour, and the reaction was terminated by filtration. The filters were washed with wash buffer. […] The reagents, membrane and other techniques used in the melatonergic binding assays are more fully described below: […] Reagents: (a) 50 mM Tris buffer containing 12.5 mM MgCl2, and 2 mM EDTA, pH 7.4 at 37° C. (b) Wash buffer: 20 mM Tris base containing 2 mM MgCl2. pH 7.4 at room temperature. (c) Melatonin (10^-5 M final concentration). (d) 2-[^125 I]-Iodomelatonin, 200 pM final concentration Source: NEN 2. Membrane preparation: NIH 3T3 cells stably transfected with the human ML1B receptor were obtained from S. M. Reppert and maintained. Cells were pelleted when confluent. The supernatant was discarded and the pellets frozen. For preparing membrane homogenates, the pellets are thawed on ice and resuspended in TME buffer, Tris base, MgCl2, EDTA (pH 7.4 at 37° C.), supplemented with aprotinin, leupeptin, and […]. The cells were then homogenized and centrifuged. The resulting pellet was resuspended with a Dounce homogenizer in TME and frozen. At assay, a small aliquot was thawed on ice and resuspended in TME buffer.

| SMILES | IC50 |
| --- | --- |
| CC(C)C(=O)N1CCC(C2CCc3ccc(F)cc32)CC1 (stereo not drawn) [4-(6-Fluoro-indan-1-yl)-1-(2-methylpropanoyl)piperidine] | < 10 nM |
| CCNC(=O)N1CCC(C2CCc3ccc(CC)cc32)CC1 (stereo not drawn) [N-Ethyl-4-(6-ethyl-indan-1-yl)piperidine-1-carboxamide] | < 10 nM |
| CCNC(=O)N1CCC(C2CCc3cc(F)c(OC)cc32)CC1 (stereo not drawn) [N-Ethyl-4-(5-fluoro-6-methoxy-indan-1-yl)piperidine-1-carboxamide] | 10 to 100 nM |
| COc1ccc2c(c1)C(C1CCN(C=O)CC1)CC2 (single isomer, unassigned; (-)) [(-)-1-Formyl-4-(6-methoxy-indan-1-yl)piperidine] | < 10 nM |
| CNC(=O)N1CCC(C2CCc3ccc(F)cc32)CC1 (stereo not drawn) [N-Methyl-4-(6-fluoro-indan-1-yl)piperidine-1-carboxamide] | 10 to 100 nM |
| COc1ccc2c(c1)C(C1CCN(C=O)CC1)CC2 (single isomer, unassigned; (+)) [(+)-1-Formyl-4-(6-methoxy-indan-1-yl)piperidine] | 10 to 100 nM |
| CCc1ccc2c(c1)C(C1CCN(C(=O)C3CC3)CC1)CC2 (stereo not drawn) [1-(Cyclopropylcarbonyl)-4-(6-ethyl-indan-1-yl)piperidine] | < 10 nM |
| CCC(C)(C)C(=O)N1CCC(C2CCc3ccc(OC)cc32)CC1 (stereo not drawn) [1-(2,2-Dimethyl-butanoyl)-4-(6-methoxy-indan-1-yl)piperidine] | 10 to 100 nM |
| COc1cccc(CCCOc2ccc3c(c2)C(C2CCN(C(=O)C4CC4)CC2)CC3)c1 (stereo not drawn) [1-(Cyclopropylcarbonyl)-4-[6-[3-(3-methoxyphenyl)propyloxy]-indan-1-yl]piperidine] | 10 to 100 nM |
| COc1cc2c(cc1F)CCC2C1CCN(C(C)=O)CC1 (stereo not drawn) [1-Acetyl-4-(5-fluoro-6-methoxy-indan-1-yl)piperidine] | < 10 nM |
| COc1cc2c(cc1F)CCC2C1CCN(C(=O)C2CC2)CC1 (stereo not drawn) [1-(Cyclopropylcarbonyl)-4-(5-fluoro-6-methoxy-indan-1-yl)piperidine] | < 10 nM |
| O=C(C1CC1)N1CCC(C2CCc3ccc(O)cc32)CC1 (stereo not drawn) [N-(Cyclopropylcarbonyl)-4-(6-hydroxy-indan-1-yl)piperidine] | 10 to 100 nM |
| CCNC(=O)N1CCC(C2CCc3ccc(F)cc32)CC1 (stereo not drawn) [N-Ethyl-4-(6-fluoro-indan-1-yl)piperidine-1-carboxamide] | < 10 nM |
| CC(=O)NCCc1c(Cc2ccccc2)[nH]c2ccccc12 [Luzindole] | 100 to 250 nM |
| COc1ccc2c(c1)C(C1CCN(C(=O)C3CC3)CC1)CCC2 (stereo not drawn) [1-(Cyclopropylcarbonyl)-4-(7-methoxy-tetralin-1-yl)piperidine] | < 10 nM |
| O=C(C1CC1)N1CCC(C2CCc3ccc(F)cc32)CC1 (stereo not drawn) [1-(Cyclopropylcarbonyl)-4-(6-fluoro-indan-1-yl)piperidine] | < 10 nM |

The next lines start with the values.

| IC50 | SMILES |
| --- | --- |
| < 10 nM | COc1ccc2c(c1)C(C1CCN(C(=O)c3occc3C)CC1)CC2 (stereo not drawn) [4-(6-Methoxy-indan-1-yl)-1-[(3-methyl-furan-2-yl)carbonyl]piperidine] |
| < 10 nM | CCNC(=O)N1CCC(C2CCc3ccc(OC)cc32)CC1 (single isomer, unassigned; (-)) [(-)-N-Ethyl-4-(6-methoxy-indan-1-yl)piperidine-1-carboxamide] |
| 10 to 100 nM | COc1ccc2c(c1)C(C1CCN(C(=O)C(F)(F)F)CC1)CC2 (single isomer, unassigned; (+)) [(+)-4-(6-Methoxy-indan-1-yl)-1-(trifluoroacetyl)piperidine] |
| < 10 nM | CCC(=O)N1CCC(C2CCc3ccc(OC)cc32)CC1 (single isomer, unassigned; (-)) [(-)-4-(6-Methoxy-indan-1-yl)-1-propanoylpiperidine] |
| < 10 nM | CCNC(=O)N1CCC(C2CCc3ccc(OC)cc32)CC1 (stereo not drawn) [N-Ethyl-4-(6-methoxy-indan-1-yl)piperidine-1-carboxamide] |
| < 10 nM | COc1ccc2c(c1)C(C1CCN(C(C)=O)CC1)CC2 (single isomer, unassigned; (-)) [(-)-1-Acetyl-4-(6-methoxy-indan-1-yl)piperidine] |
| < 10 nM | COc1ccc2c(c1)C(C1CCN(C(=O)C3CC3)CC1)CC2 (single isomer, unassigned; (-)) [(-)-1-(Cyclopropylcarbonyl)-4-(6-methoxy-indan-1-yl)piperidine] |
| < 10 nM | COc1ccc2c(c1)C(C1CCN(C(=O)c3cccs3)CC1)CC2 (stereo not drawn) [4-(6-Methoxy-indan-1-yl)-1-[(2-thienyl)carbonyl]piperidine] |
| < 10 nM | COc1ccc2c(c1)C(C1CCN(C(=O)C3CC3)CC1)CC2 (single isomer, unassigned; (+)) [(+)-1-(Cyclopropylcarbonyl)-4-(6-methoxy-indan-1-yl)piperidine] |
| < 10 nM | CNC(=S)N1CCC(C2CCc3ccc(OC)cc32)CC1 (stereo not drawn) [N-Methyl-4-(6-methoxy-indan-1-yl)-piperidine-1-thiocarboxamide] |
| < 10 nM | COc1ccc2c(c1)C(C1CCN(C(=O)c3sccc3Cl)CC1)CC2 (stereo not drawn) [1-[(3-Chloro-thien-2-yl)carbonyl]-4-(6-methoxy-indan-1-yl)-piperidine] |
| < 10 nM | COc1ccc2c(c1)C(C1CCN(C(=O)c3cccn3C)CC1)CC2 (stereo not drawn) [4-(6-Methoxy-indan-1-yl)-1-[(1-methyl-pyrrol-2-yl)carbonyl]piperidine] |
| < 10 nM | COc1ccc2c(c1)C(C1CCN(C(=O)c3ccc[nH]3)CC1)CC2 (stereo not drawn) [4-(6-Methoxy-indan-1-yl)-1-[(1H-pyrrol-2-yl)carbonyl]piperidine] |
| 10 to 100 nM | CNC(=O)N1CCC(C2CCc3ccc(OC)cc32)CC1 (single isomer, unassigned; (+)) [(+)-N-Methyl-4-(6-methoxy-indan-1-yl)piperidine-1-carboxamide] |
| < 10 nM | COc1ccc2c(c1)C(C1CCN(C(=O)C3=CCCC3)CC1)CC2 (stereo not drawn) [1-[(Cyclopent-1-en-1-yl)carbonyl]-4-(6-methoxy-indan-1-yl)piperidine] |
